Experimental data reported in patent US20260373103A1, “COMPOSITIONS AND METHODS FOR PREVENTING CARDIOMYOPATHY” (OHIO STATE INNOVATION FOUNDATION, priority 2022, published 2026).
Entries after “also recorded” stand apart in the source; their conditions may differ.

Assays:
[1] = tested on: TIM23; assay: TIM23 protein level/degradation after A/O, immunoblotting; format: cell-based; settings: ST-539; HeLa-Parkin/USP30, A/O 18 h
Protocol: HeLa cells and mouse embryonic fibroblasts (MEFs) were grown in Dulbecco's minimum essential medium (DMEM) with 10% fetal bovine serum (FBS) supplemented with penicillin-streptomycin. HeLa Parkin, PINK1 KO cells, WT and MFN2 KO cells were previously described. Cells stably expressing USP30 were generated using lentiviral vectors of pLVX-Puro-Myc-USP30. The USP30 plasmid was obtained from Addgene. The plasmid was transferred into a lentiviral vector and viral particles were prepared by transiently transfecting HEK293T using standard methods. For the drug treatment experiments, cells were incubated in medium containing a mixture of 5 μM oligomycin and 5 μM antimycin A (A/O; see figures for treatment times). In 18 h treatment, A/O were used in combination with 10 μM quinolyl-valyl-O-methylaspartyl-[−2,6-difluorophenoxy]-methyl ketone (QVD), a broad-spectrum caspase inhibitor. […]
The enzymatic activity of Parkin is to function as an E3 ubiquitin ligase. […] We then employed this cellular assay to monitor TOM20 turnover, and analyzed compounds known to be associated with the ubiquitination process for inhibitors of USP30. […] Initially to assess mitophagy in cells, we monitored the degradation of the inner membrane protein, the translocase of the inner membrane 23 (TIM23), by immunoblotting (FIG. 5A). […]

[2] = tested on: liver tissue of mt-Keima mice; assay: In vivo mitophagy in liver, mt-Keima mice; design: species or system mouse; settings: 25 mg/kg/day i.p. for 5 days
Protocol: Fluorescent samples were examined with a Zeiss LSM 780 confocal microscope (Carl Zeiss MicroImaging). As previously described^2, fluorescence of mt-Keima was imaged in two channels via two sequential excitations (458 nm, green; 561 nm, red) and using a 570- to 695-nm emission range. Confocal experiments for parkin translocation were performed using a HeLa cell line stably expressing YFP-Parkin plated on 35 mm coverglass #1.5 chamber dishes (MatTek). These cells were treated for 2 h with DMSO as vehicle control or with A/O. YFP was imaged with a 514-nm excitation and 520- to 570-emission filters. Representative confocal images were processed using Imaris software by contrast linear stretch only. Calculation of mitophagy based on mt-Keima signal was performed using Zeiss ZEN software as previously described^2. The average of four images from each tissue sample was taken, and the values were normalized to the average value seen in the controls, assigned the value of one.
(§1) The mt-Keima mouse. […] The mice were lightly anesthetized with isoflurane and the ejection fraction, fractional shortening, and ventricular chamber dimensions were determined using 2-D-guided M mode images. Ejection fraction, fractional shortening, ventricular chamber dimensions, and left ventricular mass were calculated automatically using the VevoLAB program. […]

[3] = tested on: LC3-II/LC3-I; assay: LC3 I/II immunoblotting of heart tissue; format: in vivo, mice; settings: 25 mg/kg/day i.p. for 5 days
Protocol: Cells were lysed in RIPA buffer (50 mM Tris-HCl, at pH 8.0; 150 mM NaCl; 1% (vol/vol) Nonidet P-40; 0.5% sodium deoxycholate, 0.1% SDS and protease inhibitor cocktail (Roche)) on ice. Primary antibodies were used at the following concentrations: USP30 (Santa Cruz, sc-515235, 1:200); TOM20 (Cell Signaling Technology, 42406S, 1:1000); TOM40 (Proteintech, 18409-1-AP, 1:1000); NDP52 (Cell Signaling Technology, 60732S, 1:1000); TIM23 (Proteintech, 11123-1-AP, 1:500); LC3A/B (Cell Signaling Technology, 4108S, 1:1000); GAPDH (Cell Signaling Technology, 5175S, 1:1000); PINK1 (Cell Signaling Technology, 6946S, 1:1000); ACTIN (Cell Signaling Technology, 3700S, 1:1000). The membranes were incubated with anti-rabbit (LI-COR, 926-32211, 1:15000) or anti-mouse (LI-COR, 926-68072, 1:15000) IgG secondary antibodies for 1 h at room temperature. Images were captured using the Odyssey system (LI-Cor). One representative blot is shown of three independent experiments.
as §1

[4] = tested on: HeLa cells; assay: Mitophagy inducer screen by TOM20 turnover; format: cell-based; settings: cellular TOM20 turnover assay
Protocol: The enzymatic activity of Parkin is to function as an E3 ubiquitin ligase. […] To investigate TOM20 ubiquitination during mitophagy, we treated HeLa cells stably expressing YFP-Parkin (Hela-Parkin) for up to 18 h with both the mitochondrial complex III inhibitor antimycin A and the ATP synthase inhibitor oligomycin (antimycin A/oligomycin/[A/O]; FIG. 1A). […] A/O treatment also results in a decline in the abundance of the OMM protein TOM40 and the inner mitochondrial protein TIM23 (FIG. 1A). […] In this context, increased expression of USP30 blocked the accumulation of ubiquitinated TOM20 and prevented the destruction of this outer mitochondrial protein, as well as TOM40 and TIM23, after A/O treatment (FIG. 1A). We then employed this cellular assay to monitor TOM20 turnover, and analyzed compounds known to be associated with the ubiquitination process for inhibitors of USP30. […] We defined the effects of this chemical using biochemical assays. […] Initially to assess mitophagy in cells, we monitored the degradation of the inner membrane protein, the translocase of the inner membrane 23 (TIM23), by immunoblotting (FIG. 5A). […] USP30's overexpression prevented a reduction in TIM23 and TOM40 levels.

[5] = tested on: USP30; settings: in vitro; compound and similar structures; cited from earlier work

**Q.** What does the source list for `CC(C)(C)NS(=O)(=O)c1cccc2c(NC(=O)C(Cc3ccccc3)NC(=O)c3ccccc3)cccc12` (stereo not drawn) [ST-539]?
**A.** TIM23 degradation [1]: restored TIM23 and TOM40 degradation; hepatic mitophagy [2]: remains unchanged; also recorded: inability of ST-539 to induce hepatic mitophagy; LC3-II/LC3-I ratio in heart [3]: increase in LC3-II/LC3-I ratio; LC3-II level in heart ([3]; *p<0.05): increased levels of LC3-II; potency as mitophagy inducer in screen [4]: most potent mitophagy inducer; USP30 enzyme function inhibition [5]: selectively inhibit USP30 enzyme function in vitro
